The supplement of paper PMC10307832

Legend:
Assay in all cases: relative viability (nuclei count vs DMSO), 5 days (fraction); higher = more cells survive
[1] = compound: O[C@@H](COc1cccc2ncccc12)CN1CCN([C@@H]2c3ccccc3[C@@H]3[C@H](c4ccccc42)C3(F)F)CC1 [Zosuquidar] + Cc1nc(NC(=O)N2CCC[C@H]2C(N)=O)sc1-c1ccnc(C(C)(C)C(F)(F)F)c1 [Alpelisib] (partner 2 µM)
Method in brief: (§1)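 Lung cancer cell lines were pin-tool dosed in 1536-well plates on the day after seeding, with either a lone drug or a fixed anchor-drug dose plus five library-drug doses (not always all listed) in √10 steps. Nuclei were counted on 4× images after 5 days. Relative viability is the ratio of treated-well to vehicle-well nuclei counts, with each value a median of duplicate plates.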

[2] = compound: C1=CC(=CC=C1NC(=S)NNC2=C(C=C(C=C2[N+](=O)[O-])C(F)(F)F)[N+](=O)[O-])F [Kobe2602] + Nc1nc2[nH]cc(CCc3ccc(C(=O)N[C@@H](CCC(=O)O)C(=O)O)cc3)c2c(=O)[nH]1 [Pemetrexed] (partner 0.2 µM)
Method in brief: as §1

[3] = compound: O[C@@H](COc1cccc2ncccc12)CN1CCN([C@@H]2c3ccccc3[C@@H]3[C@H](c4ccccc42)C3(F)F)CC1 [Zosuquidar] + Nc1ncn([C@H]2C[C@H](O)[C@@H](CO)O2)c(=O)n1 [Decitabine] (partner 2 µM)
Method in brief: as §1

[4] = compound: C1=CC(=CC=C1NC(=S)NNC2=C(C=C(C=C2[N+](=O)[O-])C(F)(F)F)[N+](=O)[O-])F [Kobe2602] + CC(=O)Nc1cccc(-n2c(=O)n(C3CC3)c(=O)c3c(Nc4ccc(I)cc4F)n(C)c(=O)c(C)c32)c1 [Trametinib] (partner 0.02 µM)
Method in brief: as §1

Cell Line | relative viability ([1]; first compound 0.01 µM) | relative viability ([1]; first compound 0.03162 µM) | relative viability ([1]; first compound 0.1 µM) | relative viability ([1]; first compound 0.3162 µM) | relative viability ([1]; first compound 1 µM) | relative viability ([2]; first compound 0.2 µM) | relative viability ([2]; first compound 0.6325 µM) | relative viability ([2]; first compound 2 µM) | relative viability ([2]; first compound 6.325 µM) | relative viability ([2]; first compound 20 µM) | relative viability ([3]; first compound 0.01 µM) | relative viability ([3]; first compound 0.03162 µM) | relative viability ([3]; first compound 0.1 µM) | relative viability ([3]; first compound 0.3162 µM) | relative viability ([3]; first compound 1 µM) | relative viability ([4]; first compound 0.2 µM) | relative viability ([4]; first compound 0.6325 µM) | relative viability ([4]; first compound 2 µM) | relative viability ([4]; first compound 6.325 µM) | relative viability ([4]; first compound 20 µM)
NCI-H1437 | 0.966 | 0.961 | 0.935 | 1.01 | 0.994 | 0.303 | 0.317 | 0.313 | 0.298 | 0.295 | 0.567 | 0.561 | 0.644 | 0.56 | 0.592 | 0.458 | 0.463 | 0.519 | 0.603 | 0.419
EKVX | 0.887 | 0.846 | 0.634 | 0.781 | 0.94 | 0.416 | 0.394 | 0.404 | 0.41 | 0.408 | 0.299 | 0.414 | – | 0.334 | 0.36 | 0.38 | 0.366 | 0.288 | 0.298 | 0.319
NCI-H596 | 0.467 | 0.512 | 0.502 | 0.589 | 0.591 | 0.541 | 0.523 | 0.568 | 0.505 | 0.495 | 1.02 | 0.961 | 1.03 | 1.13 | 0.879 | 0.759 | 0.685 | 0.772 | 0.792 | 0.859
NCI-H1993 | 0.628 | 0.725 | 0.625 | 0.674 | 0.705 | 0.561 | 0.589 | 0.461 | 0.531 | 0.587 | 0.609 | 0.615 | – | 0.583 | 0.546 | 0.516 | 0.489 | 0.429 | 0.507 | 0.476
HCC-78 | 0.343 | 0.313 | – | 0.325 | 0.379 | 0.891 | 0.923 | 0.699 | 0.868 | 0.844 | 0.75 | – | – | 0.804 | 0.637 | 0.708 | 0.891 | 0.633 | 0.768 | 0.8
NCI-H2087 | 1 | 1.28 | 1.2 | 1.19 | 1.15 | 0.649 | 0.653 | 0.584 | 0.698 | 0.649 | 0.262 | 0.3 | 0.305 | 0.206 | 0.33 | 0.29 | 0.188 | 0.173 | 0.196 | 0.191
H3255 | 0.712 | 0.769 | 0.492 | 0.797 | 0.689 | 0.549 | 0.544 | 0.57 | 0.629 | 0.584 | 0.559 | 0.592 | 0.497 | 0.696 | 0.716 | 0.621 | 0.629 | 0.549 | 0.632 | 0.588
NCI-H2126 | 0.755 | 0.741 | 0.554 | 0.837 | 0.797 | 0.647 | 0.67 | 0.629 | 0.736 | 0.686 | 0.571 | 0.592 | 0.624 | 0.627 | 0.538 | 0.594 | 0.598 | 0.52 | 0.577 | 0.459
LC-2-ad | 0.892 | 0.938 | 0.817 | 0.886 | 0.928 | 0.292 | 0.296 | 0.285 | 0.275 | 0.264 | 0.878 | 0.922 | 0.876 | 0.725 | 0.776 | 0.931 | 0.895 | 0.849 | 0.936 | 0.89
SW 1573 | 0.721 | 0.739 | 0.651 | 0.89 | 0.8 | 0.786 | 0.96 | 0.82 | 0.84 | 0.598 | 0.372 | 0.508 | 0.568 | 0.598 | 0.591 | 0.67 | 0.677 | 0.46 | 0.458 | 0.155
EBC-1 | 0.83 | 0.842 | 0.794 | 1.09 | 0.779 | – | – | – | – | – | – | – | – | – | – | – | – | – | – | –
HCC-15 | 0.922 | 0.88 | 0.869 | 0.932 | 0.869 | 0.238 | 0.216 | 0.223 | 0.229 | 0.211 | 0.64 | 0.575 | 0.599 | 0.711 | 0.635 | 0.34 | 0.397 | 0.362 | 0.386 | 0.387
NCI-H1650 | – | – | – | – | – | 0.394 | 0.355 | 0.363 | 0.335 | 0.374 | 0.451 | 0.439 | 0.553 | 0.398 | 0.378 | 0.724 | 0.525 | 0.59 | 0.536 | 0.586
COR-L 105 | 1.07 | 0.852 | 1.11 | 1.07 | 1.12 | 1.01 | 1.27 | 0.923 | 1.15 | 1.16 | 0.645 | 0.712 | 0.636 | 0.716 | 0.652 | 0.378 | 0.49 | 0.417 | 0.395 | 0.402
NCI-H650 | 1.15 | 0.94 | – | 1.09 | 1.28 | 0.816 | 1.04 | 0.867 | 1.05 | 0.889 | 0.292 | 0.369 | 0.387 | 0.398 | 0.376 | 0.943 | 0.961 | 1 | 0.993 | 0.845
LXF-289 | 0.994 | 1.04 | 0.97 | 1.02 | 1.01 | 0.871 | 0.896 | 0.88 | 0.861 | 0.896 | 0.357 | 0.364 | 0.367 | 0.418 | 0.403 | 0.665 | 0.658 | 0.663 | 0.691 | 0.62
NCI-H1703 | 0.355 | 0.325 | 0.237 | 0.438 | 0.345 | – | – | – | – | – | – | – | – | – | – | – | – | – | – | –
